# PMC6151660 (Molecules : A Journal of Synthetic Chemistry and Natural …, 2017)
# Legend:
# [1] = system: Mycobacterium tuberculosis H37Rv; assay: microbe, parasite or virus in culture; format: cell-based; conditions: 120 h, day 5, read-out: % M. tuberculosis Growth, Day 5; for activity at 1 µM: 1 µM compound; for activity at 50 µM: 50 µM compound; for activity at 100 µM: 100 µM compound
# [2] = biological target: equine butyrylcholinesterase (BuChE); parameters: method as in Joubert et al., 2017 [23]; conditions: ref Joubert et al., 2017 [23]; cited from earlier work
# SH-SY5Y cells [3] = assay: MPP+-induced cytotoxicity in SH-SY5Y cells (neuroprotection); conditions: 1000 μM MPP+ for 48 h; for cell survival restored after MPP+ exposure: 1 µM compound, untreated control 100%
# [4] = system: M. tuberculosis H37Rv:pCHERRY3; assay: microbe, parasite or virus in culture; format: cell-based; conditions: Mycobacterium tuberculosis
# [5] = SH-SY5Y cytotoxicity MTT assay; format: cell-based, human; conditions: human, SH-SY5Y neuroblastoma cells, MTT, read-out: CC 50% SH-SY5Y (range where 50% cell toxicity will be observed)
# Procedure: (§1) The human neuroblastoma cell line SH-SY5Y was generously donated by our collaborator at the Division of Molecular Biology and Human Biology, Stellenbosch University, Tygerberg, Cape Town. Cells were cultured in monolayer using Dulbecco Modified Eagles Medium (DMEM, Gibco, Life Technologies Ltd. Carlsbad, CA, USA) supplemented with 10% fetal bovine serum (FBS, Gibco, Life Technologies Ltd.) and 1% 100 U/mL penicillin and 100 μg/mL streptomycin (Lonza Group Ltd., Basel, Switzerland). Cells were grown at 37 °C, in a humidified atmosphere at 5% CO2. Media were replaced every two to three days and cells were sub-cultured by splitting with trypsin (Lonza Group Ltd.).
# (§2) The standard MTT assay which measures cell metabolic activity was used to determine cytotoxicity of CM14, CM15 and CM9 as described by Mosmann. Briefly, SH-SY5Y cells were plated in flat bottom 96 well plates in growth medium as stated in Section 3.7.1 at a density of 7500 cells/well. Cells were allowed to adhere to the plate surface for 24 h and used media were replaced with fresh media containing test compounds at 10 µM, 50 µM and 100 µM. Vehicle control cells were treated with DMSO (solvent for dissolving test compounds) at a concentration similar to the amount contained in the highest concentration of test compounds. After 48 h, 10 µL of MTT solution (5 mg/mL) was added to each well and incubated for 4 h and the purple formazan formed was solubilized with 100 µL DMSO and plates were read spectrophotometrically to determine absorbance at 570 nm using a BMG Labtech POLARStar Omega multimodal plate reader.
# SH-SY5Y cells [6] = assay: SH-SY5Y cytotoxicity MTT assay; format: cell-based, human; conditions: 48 h
# Procedure: as §1, §2
# [7] = Chinese hamster ovary cell cytotoxicity MTT assay; conditions: for CC50 at 44 h: CHO cells
# Procedure: Cytotoxicity was evaluated on CHO cells utilizing a standard 3-[4,5-dimethylthiazol-2-yl]-2,5-diphenyl tetrazolium bromide (MTT) assay. The MTT is a yellow tetrazolium salt that is reduced to purple formazan in the presence of living cells. This reduction reaction was used to measure growth and chemosensitivity. The test samples were tested in triplicate on one occasion. Cells were seeded in microtiter plates at a density of 10^5 cells/mL and incubated for 24 h prior to exposure. The test samples were prepared to a 20 mg/mL stock solution in 10% methanol or 10% DMSO and were tested as a suspension if not properly dissolved. Test compounds were stored at −20 °C until use, and administered in volumes of 100 µL to the plated cells. Emetine was used as the reference drug in all experiments. […] Plates were developed after 44 h of exposure to the drug by the addition of a solution of MTT. After four hours, further incubation at 37 °C the supernatant was removed from the cells via suction and DMSO was added to each well to dissolve the reduced dye crystals. […] The amount of formazan produced in wells containing untreated cells only and growth medium only represent 100% survival and 0% survival respectively, and the amount in each treatment well was converted to a survival percentage relative to these two extremes. The IC50 values were obtained from full dose-response curves, using a non-linear dose-response curve fitting analysis via GraphPad Prism v.4 software.
# electric eel AChE = system: electric eel AChE; parameters: method as in Joubert et al., 2017 [23]; conditions: ref Joubert et al., 2017 [23]; cited from earlier work
# [8] = system: M. tuberculosis H37RvMA pMSP12:GFP; assay: microbe, parasite or virus in culture; format: cell-based; conditions: Mycobacterium tuberculosis
# BSA = biological target: T1, BSA (Bos taurus, UniProt P02769); assay: Bovine serum albumin binding assay (fluorescence quenching); conditions: BSA 1.00 × 10^−5 mol L^−1, 22 °C, ex 295 nm
# T1 construct: purchased Sigma Aldrich (Kempton Park, South Africa)
# T1 sequence (P02769 25-607): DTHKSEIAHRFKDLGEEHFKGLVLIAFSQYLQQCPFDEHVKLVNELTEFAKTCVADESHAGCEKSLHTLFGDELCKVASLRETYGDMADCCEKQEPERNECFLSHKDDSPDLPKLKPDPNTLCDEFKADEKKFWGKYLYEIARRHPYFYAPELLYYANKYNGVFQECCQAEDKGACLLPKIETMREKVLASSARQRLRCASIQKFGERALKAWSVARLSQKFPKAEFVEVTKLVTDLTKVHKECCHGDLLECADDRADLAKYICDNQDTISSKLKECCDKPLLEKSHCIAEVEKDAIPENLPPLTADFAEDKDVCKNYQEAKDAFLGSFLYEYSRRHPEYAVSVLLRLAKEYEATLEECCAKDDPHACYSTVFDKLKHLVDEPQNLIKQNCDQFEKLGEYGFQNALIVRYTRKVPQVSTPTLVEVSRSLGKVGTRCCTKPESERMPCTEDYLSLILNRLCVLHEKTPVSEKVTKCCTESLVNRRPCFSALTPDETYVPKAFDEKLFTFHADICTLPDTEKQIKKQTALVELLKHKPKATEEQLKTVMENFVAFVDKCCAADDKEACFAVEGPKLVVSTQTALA
# Text: The mechanism of the fluorescent quenching of CM14 and CM15 to BSA is described using the Stern-Volmer equation:F0/F = 1 + ksv[Q] = 1 + kq τ0[Q] where F0 and F are the fluorescence intensities before and after the addition of the quencher, respectively; ksv is the dynamic quenching constant; kq is the quenching rate constant; [Q] is the concentration of quencher; τ0 is the average lifetime of the molecule without quencher and its value is considered to be 10^−8 s. The plots show a good linear relationship within the investigated concentrations of CM14 and CM15.
# The interaction between coumarin derivatives (CM14 and CM15) and BSA were measured by fluorescence spectroscopy. BSA (≥98%) was obtained from Sigma Aldrich (Kempton Park, South Africa) and dissolved in a Tris–HCl (0.10 mol L^−1, pH = 7.4) buffer to form the BSA solution with a concentration of 1.00 × 10^−5 mol L^−1. A Tris–HCl buffer (0.10 mol L^−1, pH = 7.4) containing 0.10 mol L^−1 NaCl was selected to keep the pH value constant and to maintain the ionic strength of the solution. CM14 and CM15 stock solution (1.00 × 10^−3 mol L^−1) was prepared in MeOH. […] Fluorescence spectra were recorded on a Synergy Mx fluorescence plate reader (BioTek, Winooski, VT, USA). […] Fluorescence spectra were measured in the range of 315–500 nm at the excitation wavelength of 295 nm. […]
SMILES,activity at 1 µM [1] [%],activity at 50 µM [1] [%],activity at 100 µM [1] [%],IC50 [2] [µM],cell survival restored after MPP+ exposure (SH-SY5Y cells [3]) [%],MIC90 [4] [µM],MIC99 [4] [µM],CC50 at 48 h [5] [µM],effect on viability of SH-SY5Y cells (SH-SY5Y cells [6]; 10 µM),effect on viability of SH-SY5Y cells (SH-SY5Y cells [6]; 50 µM and 100 µM),CC50 at 44 h [7] [µM],IC50 (electric eel AChE) [µM],MIC90 [8] [µM],MIC99 [8] [µM],ksv (dynamic quenching constant) (BSA) [mol/L],CC50 ([7]; Chinese hamster) [nM],maximal cytoprotection (cell viability) after MPP+ exposure (SH-SY5Y cells [3]; 10 µM compound) [%]
Cc1c(Cl)c(=O)oc2cc(OCc3ccc(Br)cc3)ccc12 [CM3],97.8,96.1,92.9,–,–,–,–,–,–,–,–,–,–,–,–,–,–
Cc1c(C#N)c(=O)oc2cc(OCc3ccc(Br)cc3)ccc12 [CM4],95.3,44.6,33.5,–,–,–,–,–,–,–,–,–,–,–,–,–,–
Cc1c(C#N)c(=O)oc2cc(OCCN3CCN(Cc4ccc(Br)cc4)CC3)ccc12 [CM14],99.5,4.4,4.44,13.3,101.2 ± 6.00,45.2,54.5,50 to 100,did not significantly affect,significantly (p < 0.001) affected,41.2,38.5,16.7,28,380000,–,–
O=c1cc(C(F)(F)F)c2ccc(OCCN3CCN(Cc4ccc(Br)cc4)CC3)cc2o1 [CM15],107,6.68,4.88,> 100,81.05 ± 6.83,43.8,57.2,10 to 50,did not significantly affect,significantly (p < 0.001) affected,26.3,> 100,3.2,8.31,488000,–,–
"CC[C@H]1CN2CCc3cc(OC)c(OC)cc3[C@@H]2C[C@@H]1C[C@H]1NCCc2cc(OC)c(OC)cc21 [Emetine, reference compound]",–,–,–,–,–,–,–,–,–,–,–,–,–,–,–,60,–
O=c1ccc2ccc(OCCN3CCN(Cc4ccc(Br)cc4)CC3)cc2o1 [CM11],95.2,7.05,4.46,–,–,–,–,–,–,–,–,–,–,–,–,–,–
Cc1c(Cl)c(=O)oc2cc(OCCN3CCC(Cc4ccccc4)CC3)ccc12 [CM8],93.6,5.69,4.62,1.27,–,40.5,44.1,–,–,–,33,31.3,19.6,25.2,–,–,–
Cc1c(C#N)c(=O)oc2cc(OCCN3CCC(Cc4ccccc4)CC3)ccc12 [CM9],92.8,7.75,6.19,5.9,81.86 ± 3.72,–,–,10 to 50,did not significantly affect,significantly (p < 0.001) affected,–,9.1,–,–,–,–,92.2 ± 4.18
Cc1cc(=O)oc2cc(OCCN3CCN(Cc4ccc(Br)cc4)CC3)ccc12 [CM12],95.2,4.35,3.93,9.7,–,40.9,50.4,–,–,–,15.5,12.8,14,29.7,–,–,–
Cc1c(C#N)c(=O)oc2cc(OCc3ccccc3)ccc12 [CM19],98.3,66.9,55.4,–,–,–,–,–,–,–,–,–,–,–,–,–,–
Cc1c(Cl)c(=O)oc2cc(OCCN3CCN(Cc4ccc(Br)cc4)CC3)ccc12 [CM13],97,42.5,32.1,–,–,–,–,–,–,–,–,–,–,–,–,–,–
